Assay results published in article PMC9730820, “Near-infrared-dye labeled tumor vascular-targeted dimer GEBP11 peptide for image-guided surgery in gastric cancer” (Frontiers in Oncology, 2022).
Where a SMILES comes first, the peptide text is derived from it. Bridges are numbered along the chain shown (N, C = ends). [ ]: non-standard residue; d: D form. The star is where a group is joined. X1 = CC[N+]1=C(C=CC=CC=C2N(CCCCCC(=O)*)c3ccc4c(S(=O)(=O)O)cc(S(=O)(=O)O)cc4c3C2(C)C)C(C)(C)c2c1ccc1c(S(=O)(=O)O)cc(S(=O)(=O)[O-])cc21; Ahx = NCCCCCC(=O)O

What was measured:
[1] = system: Co-HUVECs (HUVECs co-cultured with SGC7901 cells); assay: In vitro binding of Cy5.5 labeled GEBP11 probes, confocal fluorescence, with competitive inhibition by unlabeled GEBP11; assay type: cell-based, human; settings: 1μM probe, 6h, 37°C
Protocol: (§1) SGC7901 cells and HUVECs were cocultured as previously described ([18]). Co- HUVECs (co-cultured HUVECs), HUVECs and SGC7901 cells were harvested at log-growth phase and characterized by bench top fluorescent microscopy. Cells were incubated with 1μM GEBP11-Cy5.5 or (GEBP11)2-ACP-Cy5.5 for 6h at 37°C in a humidified atmosphere with 5% CO2. Binding affinity of the probes to cultured cells were detected by laser scanning confocal microscope (FV3000, Olympus, Japan). Nucleus were re-stained with ProLong™ Gold Antifade Mountant with DAPI (Invitrogen, USA) at room temperature. For binding specificity assessment, cells were pretreated with 25μM unlabeled GEBP11 for 30min at 37°C before incubating with the labeled probes.

HUVECs = assay: In vitro binding of Cy5.5 labeled GEBP11 probes, confocal fluorescence; assay type: cell-based, human; settings: 1μM probe, 6h, 37°C, laser scanning confocal microscope
Protocol: as §1

SGC7901 cells = assay: as above; assay type: cell-based, human; settings: 1μM probe, 6h, 37°C, laser scanning confocal microscope
Protocol: as §1

[2] = system: SGC7901 subcutaneous xenograft; assay: Live NIR fluorescence imaging in subcutaneous gastric cancer xenograft model; assay type: in vivo, athymic nude mice
Excerpt: All mice were fed irradiated alfalfa-free rodent diet (Envigo Teklad, Madison, WI) to reduce background in stomach and gut for one week prior to the imaging experiments. The mice models were used for in vivo imaging and surgical procedures when xenograft diameter reached 5 to 10 mm.

[3] = Ex vivo biodistribution of NIR signal in tumor and main organs; parameters: species or system athymic nude mice; settings: mouse, in vivo, iv, 200 ul of 5 uM probe in PBS per mouse; ex vivo NIR signal, kidney relative to muscle, 24 h post-injection, n=3, bar label of Figure 3C
Protocol: (§2) Subcutaneous tumor xenograft models were used to detect the biodistribution of NIR signals. Mice were euthanized at 24h after injection of the labeled probes or free Cy5.5. All assays were done in triplicates. Then tumor xenografts and main organs (heart, lung, kidney, bone, muscle, brain, spleen, liver, skin and intestines) were harvested. Living Image version 4.7.3 Software (IVIS) was used to quantify the NIR fluorescence intensity at selected ROIs. All ROI data were collected after subtracting background autofluorescence. Differences in the fluorescence intensities of the ROIs between different probes were statistically analyzed.

[4] = system: SGC7901 subcutaneous xenograft; assay: as above; parameters: species or system athymic nude mice; settings: tumors and major organs harvested at 24h after injection
Protocol: as §2

[5] = system: SGC7901-Luc orthotopic gastric cancer xenograft; assay: Live NIR fluorescence imaging in orthotopic gastric cancer xenograft model
Protocol: All animal experiments were conducted in compliance with protocols approved by the Institute of Animal Use Committee of Air Force Medical University. All gastric cancer xenograft models were established in 6–8 week old female athymic nude mice. The SGC7901-Luc or SGC7901-GFP cell suspension at a concentration of 2 × 10^6 cells/mL was prepared. For subcutaneous xenograft model, SGC7901-GFP cells suspension (100μL/mouse) were injected subcutaneously into the right upper limb (for in vivo binding affinity test) or lower flank of mouse (for in vivo biodistribution assay). The orthotopic gastric cancer xenograft models were established as described previously ([21]), In brief, open abdominal surgery was performed on the mice under general anesthesia, SGC7901-Luc cells suspension (100μL/mouse) were injected into the subserosa layer of the stomach.
Tumor growth was monitored by Caliper IVIS Lumina II (PerkinElmer, MA, USA). GFP fluorescence imaging was performed in subcutaneous xenograft model. Bioluminescence imaging (BLI) was performed to monitor tumor growth in the orthotopic xenograft models. Because of its higher penetrability and sensitivity, peritoneal metastasis can be visualized clearly as well. Before BLI was acquired, mice were injected with D-luciferin (150 mg/kg) by intraperitoneal injection and anesthetized with 2% isoflurane. Living Image software 4.7.3 (IVIS) was used to quantify bioluminescence signals.
Xenograft mice were injected with 200 ul GEBP11-Cy5.5, (GEBP11)2-ACP-Cy5.5 or free Cy5.5 (5 µM in PBS) via tail veins. Live NIR fluorescence imaging was performed at different time points. NIR Fluorescence intensity was quantified by region-of-interest (ROI) measurement using Living Image software 4.7.3 (IVIS).

[6] = system: SGC7901-Luc orthotopic gastric cancer xenograft; assay: Real-time NIR fluorescence imaging-guided resection; assay type: in vivo, athymic nude mice; settings: surgery 24h after probe injection, checked by BLI
Protocol: Orthotopic gastric cancer xenograft mice were anesthetized with a ketamine/xylazine mixture via intraperitoneal injection 24h after injection of (GEBP11)2-ACP-Cy5.5 probe. Real-time NIR fluorescence imaging was used to guide the removal of the primary cancer lesion and potential metastatic lesions. After resection, all surgical specimens and surgical beds were examined by NIR fluorescence imaging to confirm complete resection. To compare the efficacy of the dimer GEBP11 NIR imaging, BLI imaging pictures were taken before and after resection, the findings of BLI imaging were kept blind to the researcher who performed the surgery.

[7] = system: tumor vascular epithelial cells (CD31); assay: Fluorescence microscopy co-localisation of probe with CD31 in resected tumor sections; settings: frozen sections of resected samples, FITC-labeled anti-mouse CD31, confocal fluorescence microscopic examination
Protocol: Resected samples were embedded in optimum cutting temperature (OCT) compound (Leica, Germany), and 10μm-thick frozen tissue sections were cut on a cryostat microtome (Leica, Germany). The sections were fixed immediately with precooled isoacetone for 30min and stored at –20 °C. Hematoxylin and Eosin (H&E) staining was used for histological analysis. Tumor margins defined by H&E staining and NIR fluorescence were compared. All slides were scanned by using Pannoramic-250 Flash II slide-scanner (3D-Histech, Budapest, Hungary) and analyzed by Case viewer software (3D-Histech, Budapest, Hungary). Mouse tumor vascular endothelial cells were stained by FITC-labeled rat anti-mouse CD31 (89C2) antibody (CST, Boston, USA). Fluorescence microscopy was used to validate the colocalization of (GEBP11)2-ACP-Cy5.5 probe and tumor microvessel. Fluorescence microscopic images were acquired at 100x magnification by using Echo Revolve upside-down integrated fluorescence microscope (ECHO, USA).

Course of signal intensity at the tumor site ([5]; 200 ul of 5 µM via tail vein)	SMILES	Signal intensity compared with the mono probe ([1]; confocal microscope)	Fluorescence signal on Co-HUVECs after incubation with probe ([1]; laser scanning confocal microscope)	Fluorescence signal on HUVECs after incubation with probe (HUVECs)	Fluorescence signal on SGC7901 after incubation with probe (SGC7901 cells)	Time at which NIR fluorescence signal at the tumor site peaked ([2]; 200 ul of 5 µM probe in PBS via tail vein, observed 0-96 h, IVIS ROI) [h]	tissue to tissue ratio at 24 h [3]	Distribution of the NIR probe in tumor and organs, ex vivo fluorescence imaging [4]	Time at which signal intensity at the tumor site peaked ([5]; 200 ul of 5 µM probe via tail vein, IVIS ROI) [h]	NIR fluorescence signal at the tumor sites at 6h compared with GEBP11-Cy5.5 or free Cy5.5 ([5]; 6h after injection)	Residual cancer lesion after NIR-guided resection [6]	Co-localisation of probe fluorescence with CD31 [7]	NIR signal at the tumor sites and site of accumulation, live imaging ([2]; 200 ul of 5 µM in PBS via tail vein)
	CC[N+]1=C(C=CC=CC=C2N(CCCCCC(=O)N[C@H]3CSSC[C@@H](C(=O)NCCCCCC(=O)N[C@H]4CSSC[C@@H](C(=O)O)NC(=O)[C@H](CCSC)NC(=O)[C@H](CC(C)C)NC(=O)[C@H](Cc5ccc(O)cc5)NC(=O)[C@H](CO)NC(=O)[C@H](CC(N)=O)NC(=O)[C@H](CCCCN)NC(=O)[C@H]([C@@H](C)O)NC4=O)NC(=O)[C@H](CCSC)NC(=O)[C@H](CC(C)C)NC(=O)[C@H](Cc4ccc(O)cc4)NC(=O)[C@H](CO)NC(=O)[C@H](CC(N)=O)NC(=O)[C@H](CCCCN)NC(=O)[C@H]([C@@H](C)O)NC3=O)c3ccc4c(S(=O)(=O)O)cc(S(=O)(=O)O)cc4c3C2(C)C)C(C)(C)c2c1ccc1c(S(=O)(=O)O)cc(S(=O)(=O)[O-])cc21 [(GEBP11)2-ACP-Cy5.5] (X1-CTKNSYLMC[Ahx]CTKNSYLMC-OH; disulfide 1-9, 11-19; N-terminus and C-terminus assumed)	much higher signal intensity than GEBP11-Cy5.5	strong fluorescence signal	only scarce signal	only scarce signal	24	1.41	Significant enrichment	24	stronger NIR fluorescence signal	No residual cancer lesion could be detected	co-localize with CD31	
dropped rapidly after 6h	CCN1\C(=C/C=C/C=C/C2=[N+](CCCCCC(=O)O)c3ccc4c(S(=O)(=O)O)cc(S(=O)(=O)O)cc4c3C2(C)C)C(C)(C)c2c1ccc1c(S(=O)(=O)[O-])cc(S(=O)(=O)O)cc21 [Free Cy5.5, Cy5.5, reference compound]							found in the kidney, without enrichment in the tumor					accumulated mainly in the kidneys, and no significant signal was detected at the tumor sites
